Measured values as given in US20260028354A1, “TETRAHYDRONAPHTHALENE DERIVATIVES AS ESTROGEN RECEPTOR DEGRADERS” (REGENT OF THE UNIVERSITY OF MICHIGAN, priority 2022, published 2026).
Read-outs that look alike come from different tables or passages of the source. Values belong to the compound of their own block, whether it stands above or below them.

Columns and labels:
MCF-7 cells = assay: CellTiter-Glo (CTG) cell proliferation assay in MCF-7 cells; assay type: cell-based; details: Homo sapiens, MCF7, 144 h, MCF-7 cell proliferation, Day 6
Excerpt: CellTiter-Glo® (CTG) Assays in MCF-7 and T47D Cell Lines.
In vitro Assay: MCF-7 and T47D CTG assay

ER in MCF-7 cells = ER in MCF-7 cells (Homo sapiens (Human), UniProt P03372); assay: In-cell Western (ICW) ER degradation assay in MCF-7 cells; assay type: cell-based; details: for DC50: MCF-7, ER degradation, read-out: MCF7 DC50
Sequence of ER in MCF-7 cells (P03372 whole entry): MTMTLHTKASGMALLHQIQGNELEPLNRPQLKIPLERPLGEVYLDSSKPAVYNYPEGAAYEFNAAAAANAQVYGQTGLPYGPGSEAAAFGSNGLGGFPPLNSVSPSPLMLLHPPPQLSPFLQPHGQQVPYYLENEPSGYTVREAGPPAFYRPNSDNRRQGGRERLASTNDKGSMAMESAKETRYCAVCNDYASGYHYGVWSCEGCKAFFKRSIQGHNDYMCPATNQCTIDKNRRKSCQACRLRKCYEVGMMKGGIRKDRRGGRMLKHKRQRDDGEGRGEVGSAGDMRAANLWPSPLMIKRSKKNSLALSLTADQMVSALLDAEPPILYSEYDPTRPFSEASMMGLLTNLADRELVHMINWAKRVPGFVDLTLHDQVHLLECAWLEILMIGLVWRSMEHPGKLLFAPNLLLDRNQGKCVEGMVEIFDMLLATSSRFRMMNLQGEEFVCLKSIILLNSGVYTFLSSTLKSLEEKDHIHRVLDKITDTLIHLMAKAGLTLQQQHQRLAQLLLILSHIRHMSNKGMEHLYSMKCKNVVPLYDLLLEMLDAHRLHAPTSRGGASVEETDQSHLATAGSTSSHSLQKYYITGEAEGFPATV

CRBN/DDB1 = CRBN/DDB1 (Homo sapiens (Human), UniProt Q96SW2); assay type: binding; details: His tagged CRBN+DDB1, Cy5-labeled Thalidomide probe, one hour; read-out: CRBN HTRF IC50
Sequence of CRBN/DDB1 (Q96SW2 whole entry, species assumed): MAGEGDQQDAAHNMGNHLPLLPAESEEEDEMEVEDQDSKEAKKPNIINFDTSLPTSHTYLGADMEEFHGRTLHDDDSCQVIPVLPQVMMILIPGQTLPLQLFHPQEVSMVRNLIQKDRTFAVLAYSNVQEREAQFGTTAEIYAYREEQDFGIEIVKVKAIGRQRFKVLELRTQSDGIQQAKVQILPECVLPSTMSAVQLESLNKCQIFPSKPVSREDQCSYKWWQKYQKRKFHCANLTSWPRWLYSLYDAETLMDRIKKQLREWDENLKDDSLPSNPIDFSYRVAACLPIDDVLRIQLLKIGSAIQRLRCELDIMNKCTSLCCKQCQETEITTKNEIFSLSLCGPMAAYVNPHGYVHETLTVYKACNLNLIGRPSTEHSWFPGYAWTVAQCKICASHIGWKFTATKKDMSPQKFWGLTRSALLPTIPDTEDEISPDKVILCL
Sequence of CRBN/DDB1 (Q16531 whole entry partner, species assumed): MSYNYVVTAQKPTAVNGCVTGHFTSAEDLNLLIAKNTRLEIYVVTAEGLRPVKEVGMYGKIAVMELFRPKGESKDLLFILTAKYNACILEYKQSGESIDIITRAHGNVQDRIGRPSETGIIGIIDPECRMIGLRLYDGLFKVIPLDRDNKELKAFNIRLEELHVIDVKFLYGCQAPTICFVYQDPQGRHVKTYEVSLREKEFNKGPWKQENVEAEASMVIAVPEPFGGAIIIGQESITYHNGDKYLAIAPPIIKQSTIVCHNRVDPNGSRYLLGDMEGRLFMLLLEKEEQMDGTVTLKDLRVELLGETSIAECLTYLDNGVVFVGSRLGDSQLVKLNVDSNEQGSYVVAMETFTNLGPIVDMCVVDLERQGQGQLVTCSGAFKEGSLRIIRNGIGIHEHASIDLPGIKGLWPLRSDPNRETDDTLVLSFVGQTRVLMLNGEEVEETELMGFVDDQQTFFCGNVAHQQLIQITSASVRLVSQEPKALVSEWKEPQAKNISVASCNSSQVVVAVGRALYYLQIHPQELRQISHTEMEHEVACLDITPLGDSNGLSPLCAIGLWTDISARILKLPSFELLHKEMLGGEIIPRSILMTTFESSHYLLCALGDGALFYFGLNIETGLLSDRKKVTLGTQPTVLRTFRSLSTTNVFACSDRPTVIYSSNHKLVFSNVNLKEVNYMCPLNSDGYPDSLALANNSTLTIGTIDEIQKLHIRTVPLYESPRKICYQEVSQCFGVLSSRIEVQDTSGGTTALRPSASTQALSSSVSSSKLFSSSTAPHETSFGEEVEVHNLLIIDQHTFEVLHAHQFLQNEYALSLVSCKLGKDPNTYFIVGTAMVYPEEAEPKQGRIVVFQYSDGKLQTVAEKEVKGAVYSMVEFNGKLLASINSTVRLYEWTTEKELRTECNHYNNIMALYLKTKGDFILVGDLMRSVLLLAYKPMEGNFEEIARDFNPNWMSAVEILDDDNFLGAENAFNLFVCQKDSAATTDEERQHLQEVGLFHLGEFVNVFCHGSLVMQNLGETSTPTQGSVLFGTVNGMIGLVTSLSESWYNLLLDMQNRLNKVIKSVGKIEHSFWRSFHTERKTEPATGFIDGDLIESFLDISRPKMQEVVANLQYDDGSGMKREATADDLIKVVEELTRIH
Procedure: The binding potency was determined using HTRF assay technology (Perkin Elmer). Compounds were serially diluted in DMSO and […] volume was transferred to white 384-well plate.

ER in T47D cells = ER in T47D cells (Homo sapiens (Human), UniProt P03372); assay: In-cell Western (ICW) ER degradation assay in T47D cells; assay type: cell-based; details: for DC50: ER degradation
Sequence of ER in T47D cells (P03372 whole entry): as the sequence (P03372 whole entry) above

[1] = MCF7, MCF-7, maximal ER degradation, 16 hrs treatment, read-out: MCF7 Dmax
[2] = maximal ER degradation, 16 hrs treatment, read-out: T47D Dmax
[3] = MCF7, read-out: MCF7 Dmax, MCF-7, maximal ER degradation, 16 hrs treatment
[4] = read-out: T47D Dmax, T47D, maximal ER degradation, 16 hrs treatment

SMILES: Cc1cc2c(c3c1C(=O)N([C@H]1CCC(=O)NC1=O)C3)OCC21CCN(CC2CC3(CCN(c4ccc([C@@H]5c6ccc(O)cc6CC[C@@H]5c5ccccc5)cc4)CC3)C2)CC1 [Compound A214, (S)-3-(1′-((7-(4-((1R,2S)-6-hydroxy-2-phenyl-1,2,3,4-tetra-hydronaphthalen-1-yl)phenyl)-7-azaspiro[3.5]nonan-2-yl)-methyl)-5-methyl-6-oxo-6,8-dihydro-2H,7H-spiro[furo[2,3-c]isoindolc-3,4′-pipcridin]-7-yl)piperidine-2,6-dione]
IC50 (MCF-7 cells): < 10 nM

SMILES: COc1cc(N2CCC(CCN3CCC4(CC3)COc3c4cc(C)c4c3CN([C@H]3CCC(=O)NC3=O)C4=O)CC2)c(F)cc1[C@@H]1c2ccc(O)cc2CC[C@@H]1c1ccccc1 [Compound A213, (S)-3-(1′-(2-(1-(2-fluoro-4-((1S,2S)-6-hydroxy-2-phenyl-1,2,3,4-tetrahydronaphthalen-1-yl)-5-methoxyphenyl)piper-idin-4-yl)ethyl)-5-methyl-6-oxo-6,8-dihydro-2H,7H-spiro [furo[2,3-e]isoindole-3,4′-piperidin]-7-yl)piperidine-2,6-dione]
IC50 (MCF-7 cells): < 10 nM

IC50 (MCF-7 cells): 10 to 100 nM
SMILES: COc1cc(N2CCC(CCN3CCN4c5cc(Cl)c6c(c5OC[C@H]4C3)CN([C@H]3CCC(=O)NC3=O)C6=O)CC2)c(F)cc1[C@@H]1c2ccc(O)cc2CC[C@@H]1c1ccccc1 [Compound A224, (S)-3-((R)-12-chloro-7-(2-(1-(2-fluoro-4-((1S,2S)-6-hydroxy-2-phenyl-1,2,3,4-tetrahydronaphthalen-1-yl)-5-methoxyphenyl)piperidin-4-yl)ethyl)-1-oxo-1,3,5,5a,6,7,8,9-octahydro-2H-pyrazino[1′,2′: 4,5][1,4]oxazino[2,3-e]isoindol-2-yl)piperidine-2,6-dione]

SMILES: COc1cc(N2CCC(CCN3CCC4(CC3)COc3c4cc(OC)c4c3CN([C@@H]3CCC(=O)NC3=O)C4=O)CC2)c(F)cc1[C@@H]1c2ccc(O)cc2CC[C@@H]1c1ccccc1 [Compound A225, (R)-3-(1′-(2-(1-(2-fluoro-4-((1S,2S)-6-hydroxy-2-phenyl-1,2,3,4-tetrahydronaphthalen-1-yl)-5-methoxyphenyl)piperidin-4-yl)ethyl)-5-methoxy-6-oxo-6,8-dihydro-2H,7H-spiro[furo[2,3-e]isoindole-3,4′-piperidin]-7-yl)piperidine-2,6-dione]
IC50 (MCF-7 cells): < 10 nM

SMILES: Cc1cc2c(c3c1C(=O)N([C@H]1CCC(=O)NC1=O)C3)OCC21CCN(C[C@@H]2CCC3(CCN(c4ccc([C@@H]5c6ccc(O)cc6CC[C@@H]5c5ccccc5)cc4)CC3)OC2)CC1 [Compound A209, (S)-3-(1′-(((S)-9-(4-((1R,2S)-6-hydroxy-2-phenyl-1,2,3,4-tetrahydronaphthalen-1-yl)phenyl)-1-oxa-9-azaspiro[5.5]undecan-3-yl)methyl)-5-methyl-6-oxo-6,8-dihydro-2H,7H-spiro[furo[2,3-e]isoindole-3,4′-piperidin]-7-yl)piperidine-2,6-dione]
IC50 (MCF-7 cells): < 10 nM

IC50 (MCF-7 cells): > 100 nM
SMILES: COc1cc(N2CCC3(CC2)CC(CN2CCN4c5cc(Cl)c6c(c5OC[C@H]4C2)CN([C@H]2CCC(=O)NC2=O)C6=O)C3)c(F)cc1[C@@H]1c2ccc(O)cc2CC[C@@H]1c1ccccc1 [Compound A221, (S)-3-((R)-12-chloro-7-((7-(2-fluoro-4-((1S,2S)-6-hydroxy-2-phenyl-1,2,3,4-tetrahydronaph-thalen-1-yl)-5-methoxyphenyl)-7-azaspiro[3.5]nonan-2-yl)-methyl)-1-oxo-1,3,5,5a,6,7,8,9-octahydro-2H-pyrazino[1′,2′: 4,5][1,4]oxazino[2,3-e]isoindol-2-yl)piperidine-2,6-dione]

SMILES: COc1cc(N2CCC3(CC2)CC(CN2CCC4(CC2)COc2c4cc4c(c2C)C(=O)N([C@H]2CCC(=O)NC2=O)C4)C3)c(F)cc1[C@@H]1c2ccc(O)cc2CC[C@@H]1c1ccccc1 [Compound A220, (S)-3-(1′-((7-(2-fluoro-4-((1S,2S)-6-hydroxy-2-phenyl-1,2,3,4-tetrahydronaphthalen-1-yl)-5-methoxyphenyl)-7-aza-spiro[3.5]nonan-2-yl)methyl)-8-methyl-7-oxo-5,7-dihydro-2H,6H-spiro[furo[2,3-f]iso-indole-3,4′-piperidin]-6-yl)-piperidine-2,6-dione]
IC50 (MCF-7 cells): < 10 nM

SMILES: COc1cc(N2CCC3(CC2)CC(CN2CCC4(CC2)COc2c4cc4c(c2C)C(=O)N([C@@H]2CCC(=O)NC2=O)C4)C3)c(F)cc1[C@@H]1c2ccc(O)cc2CC[C@@H]1c1ccccc1 [Compound A219, (R)-3-(1′-((7-(2-fluoro-4-((1S, 2S)-6-hydroxy-2-phenyl-1,2,3,4-tetrahydronaphthalen-1-yl)-5-methoxyphenyl)-7-aza-spiro[3.5]nonan-2-yl)methyl)-8-methyl-7-oxo-5,7-dihydro-2H,6H-spiro[furo[2,3-f]iso-indole-3,4′-piperidin]-6-yl)-piperidine-2,6-dione]
IC50 (MCF-7 cells): < 10 nM

SMILES: COc1cc(N2CCC3(CC2)CC(CN2CCC4(CC2)COc2c4cc(OC)c4c2CN([C@@H]2CCC(=O)NC2=O)C4=O)C3)c(F)cc1[C@@H]1c2ccc(O)cc2CC[C@@H]1c1ccccc1 [Compound A223, (R)-3-(1′-((7-(2-fluoro-4-((1S,2S)-6-hydroxy-2-phenyl-1,2,3,4-tetrahydronaphthalen-1-yl)-5-methoxyphenyl)-7-azaspiro[3.5]nonan-2-yl)methyl)-5-methoxy-6-oxo-6,8-dihydro-2H,7H-spiro[furo[2,3-e]isoindole-3,4′-piperidin]-7-yl)piperidine-2,6-dione]
IC50 (MCF-7 cells): < 10 nM

IC50 (MCF-7 cells): 10 to 100 nM
SMILES: COc1cc(N2CCC3(CC2)CC(CN2CCN4c5cc(C)c6c(c5OC[C@H]4C2)CN([C@H]2CCC(=O)NC2=O)C6=O)C3)c(F)cc1[C@@H]1c2ccc(O)cc2CC[C@@H]1c1ccccc1 [Compound A228, (S)-3-((R)-7-((7-(2-fluoro-4-((1S,2S)-6-hydroxy-2-phenyl-1,2,3,4-tetrahydronaphthalen-1-yl)-5-methoxyphenyl)-7-aza-spiro[3.5]nonan-2-yl)methyl)-12-methyl-1-oxo-1,3,5,5a,6,7,8,9-octahydro-2H-pyrazino [1′,2′:4,5][1,4]oxazino[2,3-e]isoindol-2-yl)piperidine-2,6-dione]

SMILES: COc1cc(N2CCC(CCN3CCC4(CC3)COc3c4cc4c(c3Cl)C(=O)N([C@H]3CCC(=O)NC3=O)C4)CC2)c(F)cc1[C@@H]1c2ccc(O)cc2CC[C@@H]1c1ccccc1 [Compound A217, (S)-3-(8-chloro-1′-(2-(1-(2-fluoro-4-((1S,2S)-6-hydroxy-2-phenyl-1,2,3,4-tetrahydronaph-thalen-1-yl)-5-methoxyphenyl)-piperidin-4-yl)ethyl)-7-oxo-5,7-dihydro-2H,6H-spiro[furo[2,3-f]isoindole-3,4′-piperidin]-6-yl)piperidine-2,6-dione]
IC50 (MCF-7 cells): < 10 nM

SMILES: COc1cc(N2CCC3(CC2)CC(CN2CCN4c5ccc(C(=O)N[C@H]6CCC(=O)NC6=O)nc5OCC4C2)C3)ccc1[C@@H]1c2ccc(O)cc2CC[C@@H]1c1ccccc1 (stereo in doubt) [Compound A108, (S)-N-((S)-2,6-dioxopiperidin-3-yl)-3-((7-(4-((1S,2S)-6-hydroxy-2-phenyl-1,2,3,4-tetra-hydronaphthalen-1-yl)-3-meth-oxyphenyl)-7-azaspiro[3.5]nonan-2-yl)methyl)-1,2,3,4,4a, 5-hexahydropyrazino[1,2-d] pyrido[2,3-b][1,4]oxazine-8-carboxamide]
Dmax (ER in MCF-7 cells; [1]): 50 to 75%
DC50 (ER in MCF-7 cells; 16 hrs treatment): < 1 nM
IC50 (CRBN/DDB1): 500 to 5000 nM
DC50 (ER in T47D cells; 16 hrs treatment): < 1 nM
Dmax (ER in T47D cells; [2]): 50 to 75%

SMILES: O=C1CC[C@@H](Nc2ccc([C@@]34CCN(CC5CCC6(CC5)CN(c5ccc([C@@H]7c8ccc(O)cc8CC[C@@H]7c7ccccc7)cc5)C6)C[C@@H]3C4(F)F)cc2)C(=O)N1 [Compound A64, (R)-3-((4-((1R,6R)-7,7-difluoro-3-((2-(4-((1R,2S)-6-hydroxy-2-phenyl-1,2,3,4-tetra-hydronaphthalen-1-yl)phenyl)-2-azaspiro[3.5]nonan-7-yl)-methyl)-3-azabicyclo[4.1.0]heptan-6-yl)phenyl)amino)-piperidine-2,6-dione]
Dmax (ER in MCF-7 cells; [3]): 50 to 75%
DC50 (ER in MCF-7 cells; 16 hrs treatment): 1 to 10 nM
IC50 (CRBN/DDB1): > 5000 nM
DC50 (ER in T47D cells; 16 hrs treatment): 1 to 10 nM
Dmax (ER in T47D cells; [4]): 50 to 75%

SMILES: O=C1CCC(Nc2ccc(C34CCN(C[C@H]5COC6(CCN(c7ccc([C@@H]8c9ccc(O)cc9CC[C@@H]8c8ccccc8)cc7)CC6)C5)CC3C4(F)F)cc2)C(=O)N1 (stereo partly drawn) [Compound A44, (3S)-3-((4-(7,7-difluoro-3-(((S)-8-(4-((1R,2S)-6-hydroxy-2-phenyl-1,2,3,4-tetrahydro-naphthalen-1-yl)phenyl)-1-oxa-8-azaspiro[4.5]decan-3-yl)-methyl)-3-azabicyclo[4.1.0]heptan-6-yl)phenyl)amino)-piperidine-2,6-dione]
Dmax (ER in MCF-7 cells; [3]): < 25%
DC50 (ER in MCF-7 cells; 16 hrs treatment): > 100 nM
IC50 (CRBN/DDB1): > 5000 nM
DC50 (ER in T47D cells; 16 hrs treatment): > 100 nM
Dmax (ER in T47D cells; [4]): < 25%

SMILES: O=C1CC[C@H](Nc2ccc(C3CCN(C[C@@H]4COC5(CCN(c6ccc([C@@H]7c8ccc(O)cc8CC[C@@H]7c7ccccc7)cc6)CC5)C4)CC3)c(F)c2)C(=O)N1 (single isomer, unassigned) [Compound A61]
Dmax (ER in MCF-7 cells; [1]): < 25%
DC50 (ER in MCF-7 cells; 16 hrs treatment): > 100 nM
IC50 (CRBN/DDB1): 50 to 500 nM
DC50 (ER in T47D cells; 16 hrs treatment): > 100 nM
Dmax (ER in T47D cells; [2]): < 25%
